Experimental findings from article PMC3515674 (Angewandte Chemie (International ed. in English), 2011) are described below.

The test has as its target T1, purified human α2M (Homo sapiens, UniProt P01023).
T1 sequence (P01023 24-1474): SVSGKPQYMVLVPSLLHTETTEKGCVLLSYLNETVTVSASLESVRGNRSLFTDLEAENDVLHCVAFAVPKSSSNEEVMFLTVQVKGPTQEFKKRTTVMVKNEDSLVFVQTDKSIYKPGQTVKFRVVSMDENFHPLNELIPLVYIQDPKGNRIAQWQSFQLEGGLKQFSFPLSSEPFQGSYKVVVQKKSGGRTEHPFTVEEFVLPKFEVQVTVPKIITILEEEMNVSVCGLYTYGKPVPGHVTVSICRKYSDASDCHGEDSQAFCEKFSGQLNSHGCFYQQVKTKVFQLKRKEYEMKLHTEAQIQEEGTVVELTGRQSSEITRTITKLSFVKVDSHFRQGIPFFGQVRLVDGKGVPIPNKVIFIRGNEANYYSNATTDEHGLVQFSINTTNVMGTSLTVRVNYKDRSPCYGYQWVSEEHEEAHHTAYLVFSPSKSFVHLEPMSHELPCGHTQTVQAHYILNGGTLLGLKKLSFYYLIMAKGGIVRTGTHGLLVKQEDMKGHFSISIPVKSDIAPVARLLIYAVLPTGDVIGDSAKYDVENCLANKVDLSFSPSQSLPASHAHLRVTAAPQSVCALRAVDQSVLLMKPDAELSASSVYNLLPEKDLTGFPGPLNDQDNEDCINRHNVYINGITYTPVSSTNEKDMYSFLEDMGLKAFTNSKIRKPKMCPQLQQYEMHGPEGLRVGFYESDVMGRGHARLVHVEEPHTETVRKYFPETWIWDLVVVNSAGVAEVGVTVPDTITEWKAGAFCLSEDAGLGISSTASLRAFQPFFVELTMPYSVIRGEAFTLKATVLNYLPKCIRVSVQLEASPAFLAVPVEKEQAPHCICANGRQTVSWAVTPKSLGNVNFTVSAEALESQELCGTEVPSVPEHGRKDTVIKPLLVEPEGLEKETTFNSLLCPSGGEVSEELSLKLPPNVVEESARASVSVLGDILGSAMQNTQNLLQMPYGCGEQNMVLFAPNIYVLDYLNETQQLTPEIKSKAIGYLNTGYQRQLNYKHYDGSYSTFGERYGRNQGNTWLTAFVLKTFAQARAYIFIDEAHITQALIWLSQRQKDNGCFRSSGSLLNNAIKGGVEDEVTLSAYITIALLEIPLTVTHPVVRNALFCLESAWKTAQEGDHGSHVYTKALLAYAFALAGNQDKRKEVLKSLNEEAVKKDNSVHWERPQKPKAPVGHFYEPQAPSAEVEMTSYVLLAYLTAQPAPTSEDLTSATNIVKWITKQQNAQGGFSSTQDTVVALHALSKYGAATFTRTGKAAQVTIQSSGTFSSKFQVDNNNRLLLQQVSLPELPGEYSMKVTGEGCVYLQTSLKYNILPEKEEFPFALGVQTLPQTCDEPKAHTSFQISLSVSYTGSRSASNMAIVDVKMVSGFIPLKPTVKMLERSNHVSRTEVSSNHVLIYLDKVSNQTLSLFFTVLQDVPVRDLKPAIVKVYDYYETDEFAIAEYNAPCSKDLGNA
The test is classed as biochemical.

Like-named read-outs stand apart in the source and are kept apart here. Ends that are not written are not given here. MCA = 7-methoxycoumarin-4-acetic acid

For the compound `O=[N+]([O-])c1ccc(OP(=O)(O)Oc2ccc([N+](=O)[O-])cc2)cc1` [BNPP, bis-p-nitrophenyl-phosphate], the “inhibition of α2M deacylating activity” value is 40%. Where the note is “100 µM”, the “inhibition of α2M deacylating activity” value turned out to be 0%.

Regarding “ghrelin-MCA: full length acylated ghrelin containing the fluorophore 7-methoxycoumarin-4-acetic acid (MCA) at the C-terminus (GSSFLSPEHQRVQQRKESKKPPAKLQPR-{MCA}; also: octanoyl acylated, position not given here; UniProt Q9UBU3 24-51, looked up)”, the Km (commonly the substrate concentration at which the rate is half of its maximum) was determined as 24 ± 3 µM and the kcat (commonly the maximal rate divided by the concentration of active sites) was determined as 0.023 ± 0.001 min⁻¹.
